Tests used:
[1] = molecular target: T1, CDK1 (Homo sapiens, UniProt P06493); test: CDK-1 kinase screening assay (33P-ATP FlashPlate); format: biochemical; conditions: human CDK1 with cyclin B; 10 μM ATP; 1 hr at 30° C
T1 construct: purchased New England Biolabs, Beverly, Mass; 6020; host or cells: insect cells

[2] = molecular target: T2, HER2 (Homo sapiens, UniProt P04626); test: HER2 kinase screening assay (33P-ATP FlashPlate); format: biochemical; conditions: GST-HIS6 HER-2 aa 679 to 1255; 10 μM ATP; 1 hr at 30° C;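 note: Biotin-poly(GT) 4:1 peptide captured on streptavidin FlashPlate, 33P transfer from γ-ATP read by scintillation counting, lower incorporation means inhibition, 1% DMSO final, 100 µL reaction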
T2 construct: GST (Glutathione-S-Transferase) (N); HIS6 (N); thrombin cleavage site (N); purchased Proqinase, Freiburg, Germany

[3] = molecular target: T3, Aurora-A (Mus musculus, UniProt P97477); test: Aurora-A kinase screening assay (33P-ATP FlashPlate); format: biochemical; conditions: 10 μM ATP, 1 hr at 30° C;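 note: His-tagged mouse Aurora-A phosphorylating a biotinylated peptide captured on streptavidin plates, read as 33P uptake by scintillation counting, 1% DMSO, inhibition scaled between per-plate maximum and minimum signals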
T3 construct: polyhistidine (N)
T3 sequence (P97477 1-395): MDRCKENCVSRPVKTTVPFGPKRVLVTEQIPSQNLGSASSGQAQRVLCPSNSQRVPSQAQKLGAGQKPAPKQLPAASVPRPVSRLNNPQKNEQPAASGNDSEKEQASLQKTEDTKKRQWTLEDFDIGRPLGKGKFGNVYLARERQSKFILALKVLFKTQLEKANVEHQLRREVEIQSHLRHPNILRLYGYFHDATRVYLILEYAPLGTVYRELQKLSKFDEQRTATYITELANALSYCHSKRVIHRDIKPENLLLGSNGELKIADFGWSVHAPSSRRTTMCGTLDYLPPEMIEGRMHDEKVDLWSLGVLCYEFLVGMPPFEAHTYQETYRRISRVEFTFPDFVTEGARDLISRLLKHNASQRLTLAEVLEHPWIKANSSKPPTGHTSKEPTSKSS

[4] = molecular target: T4, RET (Homo sapiens, UniProt P07949); test: RET kinase screening assay (33P-ATP FlashPlate); format: biochemical; conditions: human RET kinase domain; 10 μM ATP; 1 hr at 30° C;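 note: biotinylated peptide substrate captured on streptavidin FlashPlate, 33P phosphate transfer read by scintillation counting, 1% DMSO, lower incorporation means inhibition, percent relative to per-plate maximum and minimum signals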
T4 construct: polyhistidine (N)
T4 sequence (P07949 658-1114 limits assumed): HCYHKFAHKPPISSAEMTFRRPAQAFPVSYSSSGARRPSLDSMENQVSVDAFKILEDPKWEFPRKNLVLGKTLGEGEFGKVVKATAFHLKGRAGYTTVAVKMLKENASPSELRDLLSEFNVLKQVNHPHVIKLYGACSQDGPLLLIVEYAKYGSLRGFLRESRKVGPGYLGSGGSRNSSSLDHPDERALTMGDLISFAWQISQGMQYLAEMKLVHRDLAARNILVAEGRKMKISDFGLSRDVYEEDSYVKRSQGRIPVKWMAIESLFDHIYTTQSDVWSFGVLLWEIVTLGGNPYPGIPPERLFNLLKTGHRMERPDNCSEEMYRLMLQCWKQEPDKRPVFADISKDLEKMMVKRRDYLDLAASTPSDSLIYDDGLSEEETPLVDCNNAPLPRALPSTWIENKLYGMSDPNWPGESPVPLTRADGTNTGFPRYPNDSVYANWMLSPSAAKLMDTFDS

[5] = molecular target: T5, c-Src kinase (Homo sapiens, UniProt P12931); test: c-Src Kinase Assay; format: biochemical; conditions: 5 μM ATP
T5 construct: purchased Upstate Biotechnology, Lake Placid, N.Y
Method: A mixture of a 10× kinase buffer (80 mM MOPS at pH 7.0, 2 mM EDTA and 100 mM Magnesium Chloride), ATP (5 μM final from a 10 mM stock), a Cdc2 peptide […] (100 μM final from a 2.5 mM stock), γ-^33P ATP (10 μCi/μL stock) and water (for a total of 20 μL/well) was added to each well of a Streptavidin Flashplate.
Test compound in 100% DMSO (0.5 μL) was added to the appropriate wells. Diluted c-Src kinase (human) (Accession Number SWISS-PROT P12931) (Upstate Biotechnology, Lake Placid, N.Y.) (diluted in a buffer consisting of 20 mM MOPS at pH 7.0, 1 mM EDTA, β-mercaptoethanol (0.1%), Brij-35 (0.01%), glycerol (5%), and 1 mg/mL bovine serum albumin) (2.5 μL) was added to the wells to initiate the reactions. The reaction plates were incubated at 30° C. for 40 min. The reaction was terminated by the addition of a 3% phosphoric acid solution (5 μL). The reaction product (10 μL) was spotted onto a P30 filtermat and washed for 5 minutes in phosphoric acid (75 mM). The wash sequence was repeated two more times, followed with one final wash in methanol. The plates were then dried, sealed and read on the TopCount scintillation counter after adding 30 μL scintillation fluid.
A maximum and minimum signal for the assay was determined on each plate. The percent inhibition of a test compound was calculated according to the formula: […]
For a series of test concentrations, the IC50 was derived by graphing percent inhibition against the log of the concentrations tested for a given compound with results shown in Table 2
For compounds with multiple values, each value represents a separate assay result.

[6] = system: HeLa cervical adenocarcinoma; test: Cell Proliferation Inhibition Assay (14C-thymidine incorporation), HeLa; format: cell-based; conditions: Homo sapiens, HeLa cells;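 note: test compound in DMSO added to cells seeded in scintillating 96-well plates, DMSO-only wells as control, uptake of methyl 14C-thymidine into new DNA counted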
[7] = system: A375 malignant melanoma; test: Cell Proliferation Inhibition Assay (14C-thymidine incorporation), A375; format: cell-based; conditions: Homo sapiens, A-375, A375 cells;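 note: proliferation measured by radiolabelled thymidine uptake into new DNA, counted in scintillating 96-well plates, compound-treated wells compared with DMSO-only control wells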
[8] = system: HCT-116 colon carcinoma; test: Cell Proliferation Inhibition Assay (14C-thymidine incorporation), HCT-116; format: cell-based; conditions: Homo sapiens;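 note: proliferation measured as methyl 14C-thymidine uptake into new DNA, counted in 96-well scintillating microplates, compared with DMSO-only control wells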
[9] = molecular target: T6, VEGF-R2 (Rattus norvegicus, UniProt O08775); test: VEGF-R2 kinase screening assay (33P-ATP FlashPlate); format: biochemical; conditions: rat VEGF-R2 kinase domain; 10 μM ATP; 1 hr at 30° C;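 note: Read-out is ³³P incorporation from ³³P-γ-ATP into biotinylated peptide substrate captured on streptavidin FlashPlate, counted by scintillation, 1% DMSO final, inhibition scaled between per-plate maximum and minimum signals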
T6 construct: polyhistidine (N)
T6 sequence (O08775 786-1343): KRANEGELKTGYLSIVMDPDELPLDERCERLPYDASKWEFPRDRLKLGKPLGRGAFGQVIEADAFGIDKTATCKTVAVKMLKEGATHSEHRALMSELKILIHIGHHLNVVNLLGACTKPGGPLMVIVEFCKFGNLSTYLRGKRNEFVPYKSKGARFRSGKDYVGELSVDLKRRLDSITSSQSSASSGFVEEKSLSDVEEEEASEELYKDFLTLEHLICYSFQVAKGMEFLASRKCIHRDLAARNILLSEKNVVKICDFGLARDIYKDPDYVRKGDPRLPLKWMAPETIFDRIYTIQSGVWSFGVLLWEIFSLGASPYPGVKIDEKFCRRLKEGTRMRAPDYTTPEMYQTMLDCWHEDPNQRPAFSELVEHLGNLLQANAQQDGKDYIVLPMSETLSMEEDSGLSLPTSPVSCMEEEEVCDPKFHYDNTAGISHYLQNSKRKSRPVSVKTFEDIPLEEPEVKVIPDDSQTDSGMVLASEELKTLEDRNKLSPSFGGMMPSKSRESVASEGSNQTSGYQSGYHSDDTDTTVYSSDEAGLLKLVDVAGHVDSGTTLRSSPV

T5 sequence (P12931 whole entry): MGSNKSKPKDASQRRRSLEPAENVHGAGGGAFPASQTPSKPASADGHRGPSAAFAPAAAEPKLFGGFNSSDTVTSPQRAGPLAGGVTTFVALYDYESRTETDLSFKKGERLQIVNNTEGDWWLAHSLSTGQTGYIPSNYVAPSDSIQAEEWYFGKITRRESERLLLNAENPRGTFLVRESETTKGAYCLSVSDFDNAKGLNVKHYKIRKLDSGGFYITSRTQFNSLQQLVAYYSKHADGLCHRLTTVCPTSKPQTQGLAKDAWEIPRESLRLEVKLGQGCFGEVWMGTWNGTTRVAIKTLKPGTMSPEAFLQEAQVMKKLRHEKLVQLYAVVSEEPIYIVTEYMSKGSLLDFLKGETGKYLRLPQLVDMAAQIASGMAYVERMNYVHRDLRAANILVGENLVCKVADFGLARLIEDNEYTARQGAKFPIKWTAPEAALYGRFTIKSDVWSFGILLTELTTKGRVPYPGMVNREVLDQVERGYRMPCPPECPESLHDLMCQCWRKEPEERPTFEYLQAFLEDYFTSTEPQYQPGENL
T2 sequence (P04626 679-1255): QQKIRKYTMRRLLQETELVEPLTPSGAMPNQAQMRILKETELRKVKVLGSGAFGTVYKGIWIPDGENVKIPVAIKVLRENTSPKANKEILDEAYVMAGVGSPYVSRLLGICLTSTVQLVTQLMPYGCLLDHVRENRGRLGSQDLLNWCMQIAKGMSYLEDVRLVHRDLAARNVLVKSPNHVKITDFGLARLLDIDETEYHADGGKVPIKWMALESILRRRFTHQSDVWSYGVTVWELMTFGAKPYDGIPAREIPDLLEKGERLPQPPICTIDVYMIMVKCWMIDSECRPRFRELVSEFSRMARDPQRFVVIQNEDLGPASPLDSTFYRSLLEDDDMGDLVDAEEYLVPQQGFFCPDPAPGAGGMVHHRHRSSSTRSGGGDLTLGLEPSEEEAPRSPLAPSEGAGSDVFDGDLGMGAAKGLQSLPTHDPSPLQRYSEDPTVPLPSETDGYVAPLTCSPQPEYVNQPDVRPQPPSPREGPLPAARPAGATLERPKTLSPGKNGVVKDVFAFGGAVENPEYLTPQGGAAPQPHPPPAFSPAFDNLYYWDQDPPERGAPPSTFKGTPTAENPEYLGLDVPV
T1 sequence (P06493 whole entry): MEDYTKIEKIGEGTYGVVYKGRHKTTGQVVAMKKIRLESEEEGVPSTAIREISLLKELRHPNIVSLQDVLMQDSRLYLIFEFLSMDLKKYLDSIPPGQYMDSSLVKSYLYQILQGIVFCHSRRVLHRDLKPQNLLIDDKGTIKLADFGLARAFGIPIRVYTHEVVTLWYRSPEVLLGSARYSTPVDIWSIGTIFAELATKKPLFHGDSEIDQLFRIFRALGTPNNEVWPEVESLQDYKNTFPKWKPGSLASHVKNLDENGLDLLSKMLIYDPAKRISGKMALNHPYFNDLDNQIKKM
T1 sequence (P14635 whole entry partner): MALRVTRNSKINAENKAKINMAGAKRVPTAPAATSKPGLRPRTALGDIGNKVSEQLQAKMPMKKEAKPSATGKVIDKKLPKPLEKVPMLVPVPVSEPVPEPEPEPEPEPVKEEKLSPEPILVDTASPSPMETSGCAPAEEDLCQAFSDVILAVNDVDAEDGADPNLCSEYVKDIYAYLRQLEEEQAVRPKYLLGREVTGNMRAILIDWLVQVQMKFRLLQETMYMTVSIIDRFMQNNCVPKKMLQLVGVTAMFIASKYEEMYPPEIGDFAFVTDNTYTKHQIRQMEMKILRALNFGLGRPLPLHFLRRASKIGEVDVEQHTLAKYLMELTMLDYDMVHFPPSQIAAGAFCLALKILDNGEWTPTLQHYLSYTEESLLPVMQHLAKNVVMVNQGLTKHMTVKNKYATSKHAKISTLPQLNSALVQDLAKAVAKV

Row | Structure (SMILES) | IC50 [1] | IC50 [2] | IC50 [3] | IC50 [4] | IC50 [5] | IC50 ([6]; HeLa) | IC50 [7] | IC50 ([8]; HCT-116, HCT-116 cells) | IC50 [9] | IC50 [6] | IC50 ([8]; HCT-116 cells)
1 | COCc1cccc2[nH]c(-c3n[nH]c4ncc(-c5cc[nH]c5)cc34)nc12 [Cpd 40, 3-(4-methoxymethyl-1H-benzoimidazol-2-yl)-5-(1H-pyrrol-3-yl)-1H-pyrazolo[3,4-b]pyridine] | 1190 nM | > 100000 nM | ~1000 nM | – | 327 nM | 1220 nM | 73.7 nM | 56.5 nM | 462 nM | – | –
2 | CCNCc1cncc(-c2cnc3[nH]nc(-c4nc5c(COC)cccc5[nH]4)c3c2)c1 [Cpd 42, ethyl-{5-[3-(4-methoxymethyl-1H-benzoimidazol-2-yl)-1H-pyrazolo[3,4-b]pyridin-5-yl]-pyridin-3-ylmethyl}-amine] | 9.8 nM | > 10000 nM | 4460 nM | 7630 nM | 358 nM | 298 nM | 239 nM | 280 nM | ~1000 nM | – | –
3 | c1ccc2c(-c3cnc4[nH]nc(-c5nc6c(COCCN7CCOCC7)cccc6[nH]5)c4c3)cncc2c1 [Cpd 15, 4-{3-[4-(2-morpholin-4-yl-ethoxymethyl)-1H-benzoimidazol-2-yl]-1H-pyrazolo[3,4-b]pyridin-5-yl}-isoquinoline] | 33 nM | ~100000 nM | 2270 nM | 929 nM | – | 8520 nM | 7610 nM | 5820 nM | ~1000 nM | – | –
4 | O=C(c1cccc2[nH]c(-c3n[nH]c4ncc(-c5cncc6ccccc56)cc34)nc12)N1CCCCC1 [Cpd 22, [2-(5-isoquinolin-4-yl-1H-pyrazolo[3,4-b]pyridin-3-yl)-1H-benzoimidazol-4-yl]-piperidin-1-yl-methanone] | 137 nM | > 10000 nM | 1990 nM | ~100000 nM | – | 594 nM | 188 nM | 554 nM | 2120 nM | – | –
5 | CN(C)CCNC(=O)c1cccc2[nH]c(-c3n[nH]c4ncc(-c5cncc6ccccc56)cc34)nc12 [Cpd 25, 2-(5-isoquinolin-4-yl-1H-pyrazolo[3,4-b]pyridin-3-yl)-1H-benzoimidazole-4-carboxylic acid (2-dimethylamino-ethyl)-amide] | 113 nM | > 10000 nM | > 1000 nM | > 100000 nM | – | 3800 nM | 2020 nM | 1220 nM | ~100000 nM | – | –
6 | O=C(O)c1cccc2[nH]c(-c3n[nH]c4ncc(-c5cncc6ccccc56)cc34)nc12 [Cpd 17, 2-(5-isoquinolin-4-yl-1H-pyrazolo[3,4-b]pyridin-3-yl)-1H-benzoimidazole-4-carboxylic acid] | 541 nM | > 100000 nM | > 10000 nM | > 100000 nM | – | > 10000 nM | > 10000 nM | > 10000 nM | > 10000 nM | – | –
7 | CC(C)OCc1cccc2[nH]c(-c3n[nH]c4ncc(-c5cncc6ccccc56)cc34)nc12 [Cpd 32, 4-[3-(4-isopropoxymethyl-1H-benzoimidazol-2-yl)-1H-pyrazolo[3,4-b]pyridin-5-yl]-isoquinoline] | 98.7 nM | > 100000 nM | > 1000 nM | > 100000 nM | – | – | 905 nM | – | ~100 nM | 2140 nM | 2880 nM
8 | COCc1cccc2[nH]c(-c3n[nH]c4ncc(-c5cn(S(=O)(=O)c6ccccc6)c6ccccc56)cc34)nc12 [Cpd 38, 5-(1-benzenesulfonyl-1H-indol-3-yl)-3-(4-methoxymethyl-1H-benzoimidazol-2-yl)-1H-pyrazolo[3,4-b]pyridine] | > 10000 nM | > 100000 nM | ~100000 nM | > 100000 nM | – | 1900 nM | 56.8 nM | 39.4 nM | > 1000 nM | – | –

Now from value to molecule, other results behind:

Row | IC50 [1] | IC50 [2] | IC50 [3] | IC50 [4] | IC50 [5] | IC50 ([6]; HeLa) | IC50 [7] | IC50 ([8]; HCT-116, HCT-116 cells) | IC50 [9] | Structure (SMILES) | IC50 [6] | IC50 ([8]; HCT-116 cells)
9 | 3.4 nM | > 100000 nM | 229 nM | > 1000 nM | 74 nM | 1930 nM | 2650 nM | 1410 nM | – | OCCOc1ccc2[nH]c(-c3n[nH]c4ncc(-c5cccnc5)cc34)nc2c1 [Cpd 95, 2-[2-(5-pyridin-3-yl-1H-pyrazolo[3,4-b]pyridine-3-yl)-1H-benzoimidazol-5-yloxyl]-ethanol] | – | –
10 | 595 nM | > 100000 nM | 6600 nM | > 100000 nM | 1010 nM | 10100 nM | 178 nM | 255 nM | 1370 nM | COCc1cccc2[nH]c(-c3n[nH]c4ncc(-c5cncc(CNCCN(C)C)c5)cc34)nc12 [Cpd 76, N′-{5-[3-(4-methoxymethyl-1H-benzoimidazol-2-yl)-1H-pyrazolo[3,4-b]pyridin-5-yl]-pyridin-3-ylmethyl}-N,N-dimethyl-ethane-1,2-diamine] | – | –
11 | 3.2 nM | 10700 nM | 359 nM | ~1000 nM | 11.7 nM | 47.2 nM | 120 nM | 106 nM | 269 nM | COc1ccc2[nH]c(-c3n[nH]c4ncc(-c5cncc(CNC(C)C)c5)cc34)nc2c1 [Cpd 102, isopropyl-{5-[3-(5-methoxy-1H-benzoimidazol-2-yl)-1H-pyrazolo[3,4-b]pyridin-5-yl]-pyridin-3-ylmethyl}-amine] | – | –
12 | 6 nM | > 100000 nM | > 10000 nM | > 100000 nM | 756 nM | 799 nM | 645 nM | 519 nM | – | FC(F)(F)Oc1ccc2[nH]c(-c3n[nH]c4ncc(-c5cccnc5)cc34)nc2c1 [Cpd 94, 5-pyridin-3-yl-3-(5-trifluoromethoxy-1H-benzoimidazol-2-yl)-1H-pyrazolo[3,4-b]pyridine] | – | –
13 | 1280 nM | > 100000 nM | ~10000 nM | > 100000 nM | – | 9910 nM | 160 nM | 325 nM | 115 nM | COCc1cccc2[nH]c(-c3n[nH]c4ncc(-c5cncnc5)cc34)nc12 [Cpd 68, 3-(4-methoxymethyl-1H-benzoimidazol-2-yl)-5-pyrimidin-5-yl-1H-pyrazolo[3,4-b]pyridine] | – | –
14 | 3.3 nM | > 100000 nM | ~10000 nM | > 100000 nM | – | 471 nM | 489 nM | 271 nM | ~1000 nM | c1cncc(-c2cnc3[nH]nc(-c4nc5cc6c(cc5[nH]4)OCO6)c3c2)c1 [Cpd 99, 6-(5-pyridin-3-yl-1H-pyrazolo[3,4-b]pyridin-3-yl)-5H-[1,3]dioxolo[4′,5′:4,5]benzo[1,2-d]imidazole] | – | –

Reference: patent US7541367B2, “3-benzoimidazolyl-pyrazolopyridines useful in treating kinase disorders” (Janssen Pharmaceutica, N.V., priority 2005, dated 2009)
